# US11753395B2 (Kinnate Biopharma Inc., priority 2021, dated 2023)
# How the values were obtained:
# MET D1228N = biological target: T1, MET D1228N (Homo sapiens, UniProt P08581, D1228N); assay: MET D1228N Mobility Shift Assay; details: biochemical assay IC50; 100 μM ATP, 60 minute kinase reaction
# T1 construct: purchased Signalchem M52-12IG
# Description: (§1) Small molecule inhibition of MET D1228N kinase activity was evaluated using a fluorescence -based microfluidic mobility shift assay. MET D1228N catalyzes the production of ADP from ATP during phosphoryl transfer to the substrate peptide, FLPeptide30 (5-FAM-KKKKEEIYFFF -CONH2) (Perkin Elmer, 760430). MET D1228N enzyme (Signalchem, M52-12IG) at 0.313 nM was prepared with 10 mM MgCl2 and 1.5 μM substrate peptide in a buffer containing 50 mM HEPES, 1 mM EGTA, 0.01% Brij-35, 0.05% BSA, and 2 mM DTT and pre-incubated at room temperature for 30 min prior to the start of the reaction. 100 μM ATP was added to start the reaction. The mobility shift assay electrophoretically separates the fluorescently labeled peptides (substrate and phosphorylated product) following the 60 minute kinase reaction. The reaction was terminated by addition of 0.5 M EDTA. Both substrate and product were measured and the ratio of these values used to generate % conversion of substrate to product by the LabChip EZ reader (Perkin Elmer). ICso values were calculated using the inhibition of conversion ratio using Dotmatics Knowledge Solutions Studies curve fitting environment (Dotmatics, Bishops Stortford, UK, CM23) and are presented in Table 2.
# Ba/F3-TPR-MET cells = biological target: T2, Ba/F3-TPR-MET cells (Homo sapiens, UniProt P08581); assay: CellTiter-Glo Cell Viability Assay, Ba/F3-TPR-MET; format: cell-based; details: 72 hours
# T2 construct: fused on or other part: P12270 (Nucleoprotein TPR)
# T2 sequence (P08581 whole entry, change not shown, the tested form may be a part): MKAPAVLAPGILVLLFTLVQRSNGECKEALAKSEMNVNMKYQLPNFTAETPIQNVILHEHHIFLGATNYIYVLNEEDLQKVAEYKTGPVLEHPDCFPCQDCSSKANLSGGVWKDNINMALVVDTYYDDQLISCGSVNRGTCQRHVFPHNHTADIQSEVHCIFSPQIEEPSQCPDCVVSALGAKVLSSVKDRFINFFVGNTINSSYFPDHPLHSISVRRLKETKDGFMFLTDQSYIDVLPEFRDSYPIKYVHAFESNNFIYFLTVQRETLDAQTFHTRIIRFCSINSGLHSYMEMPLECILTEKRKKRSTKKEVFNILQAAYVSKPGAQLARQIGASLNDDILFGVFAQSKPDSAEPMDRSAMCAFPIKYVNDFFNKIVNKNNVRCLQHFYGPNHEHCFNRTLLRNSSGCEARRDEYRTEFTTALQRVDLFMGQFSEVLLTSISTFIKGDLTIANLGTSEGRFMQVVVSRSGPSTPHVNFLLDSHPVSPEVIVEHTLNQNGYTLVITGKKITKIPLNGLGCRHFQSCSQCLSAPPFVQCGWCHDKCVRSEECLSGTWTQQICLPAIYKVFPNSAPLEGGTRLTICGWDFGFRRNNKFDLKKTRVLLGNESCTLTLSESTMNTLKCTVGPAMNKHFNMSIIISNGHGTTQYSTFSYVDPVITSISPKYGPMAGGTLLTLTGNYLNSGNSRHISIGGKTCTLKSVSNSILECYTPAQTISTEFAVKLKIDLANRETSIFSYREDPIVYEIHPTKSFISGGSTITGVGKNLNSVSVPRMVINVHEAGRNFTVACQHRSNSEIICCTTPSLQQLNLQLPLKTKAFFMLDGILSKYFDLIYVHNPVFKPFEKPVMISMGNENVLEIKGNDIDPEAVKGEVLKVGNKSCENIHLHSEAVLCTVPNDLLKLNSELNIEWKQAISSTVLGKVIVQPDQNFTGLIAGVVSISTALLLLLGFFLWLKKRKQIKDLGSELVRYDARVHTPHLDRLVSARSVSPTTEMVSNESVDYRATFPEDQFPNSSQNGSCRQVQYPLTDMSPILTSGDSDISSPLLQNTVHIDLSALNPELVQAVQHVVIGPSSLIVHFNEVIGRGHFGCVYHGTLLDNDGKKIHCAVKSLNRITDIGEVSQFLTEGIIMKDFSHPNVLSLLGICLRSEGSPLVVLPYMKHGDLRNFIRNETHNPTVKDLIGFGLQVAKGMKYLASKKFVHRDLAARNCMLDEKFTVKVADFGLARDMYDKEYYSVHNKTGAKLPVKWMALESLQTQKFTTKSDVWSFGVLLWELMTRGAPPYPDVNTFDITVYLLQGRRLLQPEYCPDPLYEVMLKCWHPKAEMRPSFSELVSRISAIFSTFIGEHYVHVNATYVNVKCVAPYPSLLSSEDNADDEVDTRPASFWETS
# Description: (§2) Ba/F3-TPR-MET and Ba/F3-TPR-MET-D1228N cells were seeded at 3000 cells per well in a 96 well plate in 90 μL growth media and allowed to incubate overnight at 37° C. with 5% CO2. The following day, compounds were serially diluted from a 10 mM top dose for a 9-point 3-fold dilution curve in DMSO. Following a 100-fold dilution in growth media, a further 10-fold dilution was made into the cell plate for a final volume of 100 μL and 0.1% DMSO. Compounds and cells were incubated together for 72 hours at 37° C. with 5% CO2. The CellTiter-Glo® 2.0 Assay determines the number of viable cells in culture by quantifying ATP, which indicates the presence of metabolically active cells. Luminescence readout is directly proportional to the number of viable cells in culture. CellTiter-Glo reagent (Promega, G9243) and cell plates were allowed to equilibrate to room temperature for at least 15 min, then 100 μL of CellTiter-Glo was added to each well for a 1:1 ratio of reagent to media. Samples were placed on a shaker for 2 min prior to a 30 min incubation at room temperature protected from light. Luminescence was read on a Perkin Elmer Envision plate reader 2105 and used to calculate ICso values within the Dotmatics Knowledge Solutions Studies curve fitting environment (Dotmatics, Bishops Stortford, UK, CM23) and are presented in Table 2.
# MET = biological target: T3, MET (Homo sapiens, UniProt P08581); assay: MET Mobility Shift Assay; details: biochemical assay IC50; 100 μM ATP, 60 minute kinase reaction
# T3 construct: purchased Carna Biosciences 08-151
# T3 sequence (P08581 25-1390): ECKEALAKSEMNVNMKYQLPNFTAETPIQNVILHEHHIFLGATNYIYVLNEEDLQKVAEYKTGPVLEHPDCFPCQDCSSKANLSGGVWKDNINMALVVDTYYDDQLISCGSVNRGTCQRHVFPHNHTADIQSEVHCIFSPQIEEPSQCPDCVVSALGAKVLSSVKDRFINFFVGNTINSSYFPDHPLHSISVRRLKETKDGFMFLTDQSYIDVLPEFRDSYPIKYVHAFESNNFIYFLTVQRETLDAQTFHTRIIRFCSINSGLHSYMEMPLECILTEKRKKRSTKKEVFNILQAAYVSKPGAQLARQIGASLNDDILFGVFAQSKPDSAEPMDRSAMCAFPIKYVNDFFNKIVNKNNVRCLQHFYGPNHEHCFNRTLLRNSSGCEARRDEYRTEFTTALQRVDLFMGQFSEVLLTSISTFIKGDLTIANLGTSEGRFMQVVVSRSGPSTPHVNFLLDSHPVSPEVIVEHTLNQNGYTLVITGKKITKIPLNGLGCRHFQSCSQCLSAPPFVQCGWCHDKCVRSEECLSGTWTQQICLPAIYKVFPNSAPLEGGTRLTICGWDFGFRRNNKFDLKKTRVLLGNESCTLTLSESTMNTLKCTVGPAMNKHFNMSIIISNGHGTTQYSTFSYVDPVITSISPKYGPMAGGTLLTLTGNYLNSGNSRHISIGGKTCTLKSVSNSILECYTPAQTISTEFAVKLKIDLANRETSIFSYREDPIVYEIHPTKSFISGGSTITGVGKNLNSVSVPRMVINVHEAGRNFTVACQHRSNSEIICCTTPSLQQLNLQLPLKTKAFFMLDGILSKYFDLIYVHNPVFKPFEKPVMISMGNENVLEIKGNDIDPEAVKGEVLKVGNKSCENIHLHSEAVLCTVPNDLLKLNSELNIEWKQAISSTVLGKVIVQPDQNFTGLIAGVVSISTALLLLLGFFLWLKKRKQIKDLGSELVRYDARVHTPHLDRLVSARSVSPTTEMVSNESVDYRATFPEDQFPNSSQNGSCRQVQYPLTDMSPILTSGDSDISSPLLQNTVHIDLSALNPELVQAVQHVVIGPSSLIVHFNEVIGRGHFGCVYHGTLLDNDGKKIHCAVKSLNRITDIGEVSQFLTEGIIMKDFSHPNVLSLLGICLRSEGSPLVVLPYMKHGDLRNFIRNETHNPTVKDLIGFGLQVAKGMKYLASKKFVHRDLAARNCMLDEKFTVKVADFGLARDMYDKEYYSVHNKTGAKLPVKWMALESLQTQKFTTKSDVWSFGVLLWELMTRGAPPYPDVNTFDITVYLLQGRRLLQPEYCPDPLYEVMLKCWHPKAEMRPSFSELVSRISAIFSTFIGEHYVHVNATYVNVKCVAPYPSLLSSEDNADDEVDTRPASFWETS
# Description: as §1, with “MET” for “MET D1228N”, “a fluorescence-based” for “a fluorescence -based”, “FLPeptide30 (5-FAM-KKKKEEIYFFF-CONH2)” for “FLPeptide30 (5-FAM-KKKKEEIYFFF -CONH2)”, “MET enzme (Carna Biosciences, 08-151)” for “MET D1228N enzyme (Signalchem, M52-12IG)”, “at 0.625” for “at 0.313”
# [1] = biological target: T4, Ba/F3-TPR-MET-D1228N cells (Homo sapiens, UniProt P08581, D1228N, cells depend on it); assay: CellTiter-Glo Cell Viability Assay, Ba/F3-TPR-MET-D1228N; format: cell-based; details: 72 hours
# T4 construct: fused on or other part: P12270 (Nucleoprotein TPR)
# T4 sequence (P08581 whole entry D1228N, the tested form may be a part): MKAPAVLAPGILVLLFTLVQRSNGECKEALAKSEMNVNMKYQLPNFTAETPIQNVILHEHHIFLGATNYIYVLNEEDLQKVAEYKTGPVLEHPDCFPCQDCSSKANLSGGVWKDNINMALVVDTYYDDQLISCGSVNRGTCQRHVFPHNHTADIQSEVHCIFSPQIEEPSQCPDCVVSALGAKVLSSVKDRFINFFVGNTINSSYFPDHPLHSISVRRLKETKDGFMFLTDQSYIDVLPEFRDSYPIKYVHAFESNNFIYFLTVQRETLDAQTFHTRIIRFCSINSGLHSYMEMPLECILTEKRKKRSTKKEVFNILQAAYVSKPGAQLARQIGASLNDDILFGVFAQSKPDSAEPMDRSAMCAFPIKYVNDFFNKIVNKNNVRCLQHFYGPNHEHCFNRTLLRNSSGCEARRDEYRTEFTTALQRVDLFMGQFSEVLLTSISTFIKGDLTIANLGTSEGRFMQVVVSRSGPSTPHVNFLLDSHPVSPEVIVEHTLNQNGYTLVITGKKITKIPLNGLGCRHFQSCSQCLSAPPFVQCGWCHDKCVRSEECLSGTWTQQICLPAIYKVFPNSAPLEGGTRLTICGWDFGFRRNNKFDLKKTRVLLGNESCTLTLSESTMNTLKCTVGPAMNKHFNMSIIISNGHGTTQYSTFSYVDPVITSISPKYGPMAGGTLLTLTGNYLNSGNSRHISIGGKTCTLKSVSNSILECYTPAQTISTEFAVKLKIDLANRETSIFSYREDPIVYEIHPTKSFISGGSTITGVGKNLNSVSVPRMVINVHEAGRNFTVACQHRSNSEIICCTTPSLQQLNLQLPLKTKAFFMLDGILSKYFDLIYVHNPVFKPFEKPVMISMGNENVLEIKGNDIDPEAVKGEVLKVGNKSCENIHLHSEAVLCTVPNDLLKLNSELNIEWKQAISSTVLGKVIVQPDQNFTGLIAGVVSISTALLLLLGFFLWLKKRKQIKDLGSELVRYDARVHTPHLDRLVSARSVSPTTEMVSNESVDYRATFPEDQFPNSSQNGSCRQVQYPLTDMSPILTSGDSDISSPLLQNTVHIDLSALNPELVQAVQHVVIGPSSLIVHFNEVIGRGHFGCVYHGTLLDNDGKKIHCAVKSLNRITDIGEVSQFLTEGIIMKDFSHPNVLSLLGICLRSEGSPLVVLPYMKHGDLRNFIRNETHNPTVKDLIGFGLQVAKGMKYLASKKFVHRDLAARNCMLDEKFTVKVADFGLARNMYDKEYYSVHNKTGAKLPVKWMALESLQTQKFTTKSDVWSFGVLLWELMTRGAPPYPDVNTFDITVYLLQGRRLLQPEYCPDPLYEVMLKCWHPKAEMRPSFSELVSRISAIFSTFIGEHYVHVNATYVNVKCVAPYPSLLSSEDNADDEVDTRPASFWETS
# Description: as §2
IC50 (MET D1228N) [nM],IC50 (MET) [nM],SMILES,EC50 (Ba/F3-TPR-MET cells) [nM],EC50 [1] [nM]
≤ 100,≤ 100,"CCOc1ccncc1C(=O)Nc1cc(F)c(Oc2ccnc3cc(OCCCN4CCOCC4)c(OC)cc23)c(F)c1 [Example 28, N-(3,5-difluoro-4-((6-methoxy-7-(3-morpholinopropoxy)quinolin-4-yl)oxy)phenyl)-4-ethoxypyridine-3-carboxamide]",≤ 100,≤ 100
≤ 100,≤ 100,"COc1cc2nccc(Oc3c(F)cc(NC(=O)c4cnccc4OC)cc3F)c2cc1O[C@@H](C)CO [Example 126, (S)-N-(3,5-difluoro-4-{[6-((1-hydroxypropan-2-yl)oxy)-7-methoxyquinolin-4-yl]oxy}phenyl)-4-methoxypyridine-3-carboxamide]",≤ 100,≤ 100
≤ 100,≤ 100,"CNCCOc1cc2nccc(Oc3ccc(NC(=O)c4c(OC)ccnc4F)c(F)c3F)c2cc1OC [Example 15, N-(2,3-difluoro-4-((6-methoxy-7-(2-(methylamino)ethoxy)quinolin-4-yl)oxy)phenyl)-2-fluoro-4-methoxypyridine-3-carboxamide]",100 to 1000,100 to 1000
≤ 100,≤ 100,"COc1cc2c(Oc3cc(F)c(NC(=O)c4cnccc4OC)cc3F)ccnc2cc1OCCCN1CCOCC1 [Example 27, N-[2,5-difluoro-4-({6-methoxy-7-[3-(morpholin-4-yl)propoxy]quinolin-4-yl}oxy)phenyl]-4-methoxypyridine-3-carboxamide]",100 to 1000,100 to 1000
≤ 100,≤ 100,"COc1cc2c(Oc3c(F)cc(NC(=O)c4cnccc4OC)cc3F)ccnc2cc1OCCCN1CCOCC1 [Example 30, N-(3,5-difluoro-4-((6-methoxy-7-(3-morpholinopropoxy)quinolin-4-yl)oxy)phenyl)-4-methoxypyridine-3-carboxamide]",≤ 100,≤ 100
≤ 100,≤ 100,"CNCCOc1cc2ncnc(Oc3c(F)cc(NC(=O)c4c(OC)ccnc4F)cc3F)c2cc1OC [Example 7, N-(3,5-difluoro-4-((6-methoxy-7-(2-(methylamino)ethoxy)quinazolin-4-yl)oxy)phenyl)-2-fluoro-4-methoxypyridine-3-carboxamide]",1000 to 10000,100 to 1000
≤ 100,≤ 100,"COc1cc2nccc(Oc3c(F)cc(NC(=O)c4ccncc4OC)cc3F)c2cc1O[C@@H](C)CO [Example 127, (S)-N-(3,5-difluoro-4-((6-((1-hydroxypropan-2-yl)oxy)-7-methoxyquinolin-4-yl)oxy)phenyl)-3-methoxyisonicotinamide]",≤ 100,≤ 100
≤ 100,≤ 100,"COc1cc2nccc(Oc3c(F)cc(NC(=O)c4cnccc4OCC(F)F)cc3F)c2cc1OCCO [Example 143, N-(3,5-difluoro-4-((6-(2-hydroxyethoxy)-7-methoxyquinolin-4-yl)oxy)phenyl)-4-(2,2-difluoroethoxy)pyridine-3-carboxamide]",≤ 100,≤ 100
≤ 100,≤ 100,"COCCOc1cc2nccc(Oc3c(F)cc(NC(=O)c4cnccc4OC)cc3F)c2cc1OCCOC [Example 43, N-(4-((6,7-bis(2-methoxyethoxy)quinolin-4-yl)oxy)-3,5-difluorophenyl)-4-methoxypyridine-3-carboxamide]",≤ 100,≤ 100

# More lines, now with the values behind:
SMILES,IC50 (MET D1228N) [nM],IC50 (MET) [nM],EC50 (Ba/F3-TPR-MET cells) [nM],EC50 [1] [nM]
"CNCCCOc1cc2nccc(Nc3c(F)cc(NC(=O)c4cnccc4OC)cc3F)c2cc1OC [Example 19, N-(3,5-difluoro-4-((6-methoxy-7-(3-(methylamino)propoxy)quinolin-4-yl)amino)phenyl)-4-methoxypyridine-3-carboxamide]",≤ 100,≤ 100,> 10000,> 10000
"COc1cc2c(Oc3cc(F)c(NC(=O)c4cnc(N)cc4OC)cc3F)ccnc2cc1OCCCN1CCOCC1 [Example 31, 6-amino-N-(2,5-difluoro-4-((6-methoxy-7-(3-morpholinopropoxy)quinolin-4-yl)oxy)phenyl)-4-methoxypyridine-3-carboxamide]",≤ 100,≤ 100,100 to 1000,100 to 1000
"C[C@H](O)COc1ccc2c(Oc3c(F)cc(NC(=O)c4cnccc4OC4CC4)cc3F)ccnc2c1 [Example 102, 4-cyclopropoxy-N-[3,5-difluoro-4-({7-[(2S)-2-hydroxypropoxy]quinolin-4-yl}oxy)phenyl]pyridine-3-carboxamide]",≤ 100,≤ 100,100 to 1000,100 to 1000
"C[C@@H](O)COc1ccc2c(Oc3c(F)cc(NC(=O)c4cnccc4OC4CC4)cc3F)ccnc2c1 [Example 101, 4-cyclopropoxy-N-[3,5-difluoro-4-({7-[(2R)-2-hydroxypropoxy]quinolin-4-yl}oxy)phenyl]pyridine-3-carboxamide]",≤ 100,≤ 100,100 to 1000,100 to 1000
"COc1cc2nccc(Oc3c(F)cc(NC(=O)c4cnccc4OC)cc3F)c2cc1OC[C@@H](C)O [Example 124, (R)-N-(3,5-difluoro-4-{[6-(2-hydroxypropoxy)-7-methoxyquinolin-4-yl]oxy}phenyl)-4-methoxypyridine-3-carboxamide]",≤ 100,≤ 100,≤ 100,≤ 100
"CNCCOc1cc2nccc(Oc3c(F)cc(NC(=O)c4cnccc4OC)c(F)c3F)c2cc1OC [Example 50, 4-methoxy-N-(2,3,5-trifluoro-4-((6-methoxy-7-(2-(methylamino)ethoxy)quinolin-4-yl)oxy)phenyl)pyridine-3-carboxamide]",≤ 100,≤ 100,≤ 100,≤ 100
"COc1cc2c(Oc3c(F)cc(NC(=O)c4cnccc4OC4CC4)cc3F)ccnc2cc1OC1CNC1 [Example 74, N-(4-{[7-(azetidin-3-yloxy)-6-methoxyquinolin-4-yl]oxy}-3,5-difluorophenyl)-4-cyclopropoxypyridine-3-carboxamide]",≤ 100,≤ 100,100 to 1000,100 to 1000
"CNCCOc1cc2nccc(Oc3c(F)cc(NC(=O)c4cnc(NCCOC)cc4OC)cc3F)c2cc1OC [Example 46, N-(3,5-difluoro-4-((6-methoxy-7-(2-(methylamino)ethoxy)quinolin-4-yl)oxy)phenyl)-4-methoxy-6-((2-methoxyethyl)amino)pyridine-3-carboxamide]",≤ 100,≤ 100,≤ 100,≤ 100
"CNCCOc1cc2nccc(Oc3c(F)cc(NC(=O)c4cnccc4OC(F)F)cc3F)c2cc1OC [Example 47, N-(3,5-difluoro-4-((6-methoxy-7-(2-(methylamino)ethoxy)quinolin-4-yl)oxy)phenyl)-4-(difluoromethoxy)pyridine-3-carboxamide]",≤ 100,≤ 100,100 to 1000,100 to 1000
"COc1cc2c(Oc3c(F)cc(NC(=O)c4ccccc4F)cc3F)ccnc2cc1OCCO [Example 134, N-(3,5-difluoro-4-((7-(2-hydroxyethoxy)-6-methoxyquinolin-4-yl)oxy)phenyl)-2-fluorobenzamide]",≤ 100,≤ 100,≤ 100,≤ 100
